Test results as given in ChEMBL document CHEMBL1144685, “Naphthamides as novel and potent vascular endothelial growth factor receptor tyrosine kinase inhibitors: design, synthesis, and evaluation” (J Med Chem, 2008).

Tests used:
HUVEC [1] = experiment: cells; settings: Homo sapiens
Description: Inhibition of VEGF-induced proliferation of HUVEC cells

[2] = molecular target: Vascular endothelial growth factor receptor 2 (Homo sapiens, UniProt P35968)
Description: Inhibition of KDR by HTRF assay

HUVEC [3] = experiment: cells; settings: Homo sapiens; remark: listed apart in the source
Description: Inhibition of bFGF-induced proliferation of HUVEC cells

Vascular endothelial growth factor receptor 2, sequence (P35968 whole entry): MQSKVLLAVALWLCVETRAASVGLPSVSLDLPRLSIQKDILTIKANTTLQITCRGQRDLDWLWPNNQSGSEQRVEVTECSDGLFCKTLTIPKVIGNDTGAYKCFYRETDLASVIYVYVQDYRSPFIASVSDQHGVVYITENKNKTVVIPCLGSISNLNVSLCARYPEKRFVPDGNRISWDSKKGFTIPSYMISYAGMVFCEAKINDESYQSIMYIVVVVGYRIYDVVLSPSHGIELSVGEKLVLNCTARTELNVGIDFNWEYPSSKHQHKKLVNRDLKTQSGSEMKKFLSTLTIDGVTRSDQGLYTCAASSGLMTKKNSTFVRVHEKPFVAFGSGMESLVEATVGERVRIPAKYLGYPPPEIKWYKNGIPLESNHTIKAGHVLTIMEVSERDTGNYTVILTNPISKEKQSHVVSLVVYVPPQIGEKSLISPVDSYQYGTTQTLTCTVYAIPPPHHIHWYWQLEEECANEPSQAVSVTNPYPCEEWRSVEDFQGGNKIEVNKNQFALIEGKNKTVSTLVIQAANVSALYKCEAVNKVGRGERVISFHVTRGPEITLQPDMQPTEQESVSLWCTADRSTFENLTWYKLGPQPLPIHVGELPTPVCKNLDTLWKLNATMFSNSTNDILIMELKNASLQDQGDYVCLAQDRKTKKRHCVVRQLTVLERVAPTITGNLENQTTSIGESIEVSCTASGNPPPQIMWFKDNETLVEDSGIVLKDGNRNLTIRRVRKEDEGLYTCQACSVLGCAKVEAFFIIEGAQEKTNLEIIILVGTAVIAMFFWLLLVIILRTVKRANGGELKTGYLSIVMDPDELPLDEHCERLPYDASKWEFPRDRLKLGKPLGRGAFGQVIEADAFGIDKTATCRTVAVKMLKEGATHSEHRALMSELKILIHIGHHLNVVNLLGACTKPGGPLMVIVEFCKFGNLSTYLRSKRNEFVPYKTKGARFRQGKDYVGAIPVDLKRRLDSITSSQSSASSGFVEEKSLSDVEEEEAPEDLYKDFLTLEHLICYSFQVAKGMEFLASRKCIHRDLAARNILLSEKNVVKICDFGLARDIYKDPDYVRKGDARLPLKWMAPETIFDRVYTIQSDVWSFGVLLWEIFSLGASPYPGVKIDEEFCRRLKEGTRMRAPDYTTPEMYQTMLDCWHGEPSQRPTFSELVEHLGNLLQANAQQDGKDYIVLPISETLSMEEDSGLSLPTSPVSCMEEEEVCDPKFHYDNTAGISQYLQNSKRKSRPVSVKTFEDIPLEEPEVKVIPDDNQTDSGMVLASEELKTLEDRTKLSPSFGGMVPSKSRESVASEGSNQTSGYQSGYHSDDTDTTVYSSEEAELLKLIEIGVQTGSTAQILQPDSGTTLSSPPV

SMILES | IC50 (HUVEC [1]) | IC50 [2] | IC50 (HUVEC [3])
COc1cc2nccc(Oc3cc4cccc(C(=O)Nc5ccc(Cl)cc5)c4cn3)c2cc1OC | 175 nM | 23 nM | > 1140 nM
COc1ccc2c(Oc3ccc4c(C(=O)Nc5ccc(Cl)cc5)cccc4c3)ccnc2c1 | 8 nM | 1 nM | > 1100 nM
COc1cc2nccc(Oc3ccc4c(C(=O)Nc5cc(C)on5)cccc4c3)c2cc1OC | 6 nM | 0.6 nM | 250 nM
O=C(Nc1ccc(Cl)cc1)c1cccc2cc(Oc3ccnc4ccccc34)ccc12 | 34 nM | 4 nM | > 1100 nM
COc1cc2nccc(Oc3ccc4c(C(=O)Nc5ccc(C(F)(F)F)cc5)cccc4c3)c2cc1OC | 16 nM | 0.5 nM | 228 nM
COc1cc2ncc(F)c(Oc3ccc4c(C(=O)Nc5ccc(Cl)cc5)cccc4c3)c2cc1OC | 69 nM | 20 nM | > 1100 nM
CNC(=O)c1cc(Oc2ccc3c(C(=O)Nc4ccc(Cl)cc4)cccc3c2)ccn1 | 210 nM | 3 nM | > 1100 nM
COc1cc2nccc(Oc3ccc4c(C(=O)Nc5ccon5)cccc4c3)c2cc1OC |  | 0.2 nM | 
COc1cc2nccc(Oc3ccc4c(C(=O)Nc5cc(C(C)(C)C)on5)cccc4c3)c2cc1OC | 68 nM | 0.8 nM | 190 nM
COc1cc2nccc(Oc3ccc4c(C(=O)Nc5ccc(C(C)(C)C)cc5)cccc4c3)c2cc1OC | 63 nM | 0.7 nM | 944 nM
COc1cc2nccc(N(C)c3ccc4c(C(=O)Nc5ccc(Cl)cc5)cccc4c3)c2cc1OC |  | > 1400 nM | 
O=C(Nc1ccc(Cl)cc1)c1cccc2cc(Oc3ccncc3)ccc12 | 220 nM | 18 nM | > 1100 nM
COc1cc2nccc(Nc3ccc4c(C(=O)Nc5ccc(Cl)cc5)cccc4c3)c2cc1OC | 14 nM | 8 nM | 115 nM
CNc1cc(Oc2ccc3c(C(=O)Nc4ccc(Cl)cc4)cccc3c2)ccn1 | 140 nM | 7 nM | > 1100 nM
COc1cc2nccc(Oc3ccc4c(C(=O)Nc5ccc(Cl)cc5Cl)cccc4c3)c2cc1OC | 14 nM | 2 nM | > 1140 nM
O=C(Nc1ccc(Cl)cc1)c1cccc2cc(Oc3ccncn3)ccc12 |  | 310 nM | 
COc1cc2nccc(Oc3ccc4c(C(=O)NC(C)C)cccc4c3)c2cc1OC | 4 nM | 5 nM | > 1140 nM
COc1cc2nccc(Oc3ccc4c(C(=O)Nc5ccccc5F)cccc4c3)c2cc1OC | 7 nM | 2 nM | > 1140 nM
CNc1cc(Oc2ccc3c(C(=O)Nc4ccc(Cl)cc4)cccc3c2)ncn1 | 106 nM | 20 nM | > 1100 nM
COc1cc2nccc(Oc3ccc4c(C(=O)Nc5ccc(F)cc5)cccc4c3)c2cc1OC | 2 nM | 1 nM | 305 nM
COc1cc2nccc(Oc3ccc4c(C(=O)NC5(C)CC5)cccc4c3)c2cc1OC |  | 15 nM | 
COc1cc2nccc(Oc3ccc4c(C(=O)Nc5cccc(C(F)(F)F)c5)cccc4c3)c2cc1OC | 34 nM | 0.5 nM | 205 nM
